According to PMC4106271 (Journal of Medicinal Chemistry, 2014):

What was measured:
Assay type in all cases: cell-based
[1] = target: T1, α1β2γ2S GABAA receptors (Homo sapiens, UniProt P14867+P47870); assay: Two-microelectrode voltage clamp, IGABA modulation, α1β2γ2S; details: for nH: Hill coefficient of concentration–response curve; for EC50: IGABA enhancement, GABA EC3–7, Xenopus oocytes
T1 construct: expressed in transfected cells; host or cells: Xenopus laevis oocytes injected with cRNA (pCMV cDNA templates)
T1 sequence (P14867 28-456): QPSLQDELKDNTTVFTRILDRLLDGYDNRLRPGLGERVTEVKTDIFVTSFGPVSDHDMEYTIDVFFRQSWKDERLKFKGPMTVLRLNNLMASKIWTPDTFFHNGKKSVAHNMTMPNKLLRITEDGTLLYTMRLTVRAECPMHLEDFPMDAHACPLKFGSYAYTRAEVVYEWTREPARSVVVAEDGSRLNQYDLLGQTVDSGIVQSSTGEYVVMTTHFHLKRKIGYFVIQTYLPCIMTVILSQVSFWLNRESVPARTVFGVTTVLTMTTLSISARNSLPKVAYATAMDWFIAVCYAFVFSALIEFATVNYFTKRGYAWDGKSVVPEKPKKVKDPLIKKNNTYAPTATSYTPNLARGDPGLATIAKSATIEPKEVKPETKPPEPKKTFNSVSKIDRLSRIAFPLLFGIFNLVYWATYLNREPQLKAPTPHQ
T1 sequence (P47870 26-512): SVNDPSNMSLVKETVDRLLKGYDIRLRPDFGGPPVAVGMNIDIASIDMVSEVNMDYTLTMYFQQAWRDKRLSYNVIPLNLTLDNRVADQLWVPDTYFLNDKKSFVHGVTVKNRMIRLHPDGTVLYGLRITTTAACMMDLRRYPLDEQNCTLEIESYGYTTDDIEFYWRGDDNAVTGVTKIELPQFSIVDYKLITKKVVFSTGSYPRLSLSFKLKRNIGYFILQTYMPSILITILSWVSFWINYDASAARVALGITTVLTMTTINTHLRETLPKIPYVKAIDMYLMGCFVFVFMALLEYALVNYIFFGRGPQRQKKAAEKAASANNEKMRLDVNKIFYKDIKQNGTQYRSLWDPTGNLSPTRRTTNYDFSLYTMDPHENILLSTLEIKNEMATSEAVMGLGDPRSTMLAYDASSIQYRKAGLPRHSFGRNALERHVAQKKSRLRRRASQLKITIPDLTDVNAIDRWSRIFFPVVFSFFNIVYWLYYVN
T1 sequence (P18507 40-467 isoform P18507-1 partner limits assumed): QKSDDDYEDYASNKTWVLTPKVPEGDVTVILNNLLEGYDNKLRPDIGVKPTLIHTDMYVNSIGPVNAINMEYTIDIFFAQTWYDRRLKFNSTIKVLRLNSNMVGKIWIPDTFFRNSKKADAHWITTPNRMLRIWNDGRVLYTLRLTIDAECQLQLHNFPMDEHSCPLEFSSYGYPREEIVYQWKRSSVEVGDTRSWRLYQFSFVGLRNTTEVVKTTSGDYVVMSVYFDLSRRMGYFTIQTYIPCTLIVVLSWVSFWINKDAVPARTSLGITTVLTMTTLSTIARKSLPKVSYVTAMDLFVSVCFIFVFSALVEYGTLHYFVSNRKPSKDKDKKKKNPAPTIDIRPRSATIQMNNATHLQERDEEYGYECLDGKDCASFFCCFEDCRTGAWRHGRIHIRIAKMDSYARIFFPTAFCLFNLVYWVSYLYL
Procedure: (§1) Preparation of stage V–VI oocytes from X. laevis and synthesis of capped runoff poly(A) cRNA transcripts from linearized cDNA templates (pCMV vector) was performed as previously described.[49] […] Follicle membranes from isolated oocytes were enzymatically digested with 2 mg/mL collagenase (type 1A, Sigma–Aldrich, Vienna, Austria).
(§2) Selected oocytes were injected with 10–50 nL of DEPC-treated water (diethyl pyrocarbonate, Sigma, Vienna, Austria) containing the different GABAA cRNAs at a concentration of approximately 300–3000 pg·nL^–1·subunit^–1.
(§3) To ensure expression of the γ2S subunit in the case of α1/2/3/5β2/3γ2S receptors, cRNAs were mixed in a ratio of 1:1:10. […] The amount of cRNAs was determined by means of a NanoDrop ND-1000 (Kisker-Biotech, Steinfurt, Germany).
(§4) Oocytes were stored at +18 °C in modified ND96 solution (90 mM NaCl, 1 mM CaCl2, 1 mM KCl, 1 mM MgCl2·6H2O, and 5 mM HEPES [4-(2-hydroxyethyl)-1-piperazineethanesulfonic acid], pH 7.4, all from Sigma–Aldrich, Vienna, Austria).
(§5) Chloride currents through GABAA receptors (IGABA) were measured at room temperature (+21 ± 1 °C) by means of a two-microelectrode voltage clamp technique making use of a Turbo TEC-05X amplifier (npi electronic, Tamm, Germany). IGABA were elicited at a holding potential of –70 mV. Data acquisition was carried out by means of an Axon Digidata 1322A interface using pCLAMP v.10 (Molecular Devices, Sunnyvale, CA). The modified ND96 solution was used as bath solution.
(§6) GABA and the studied derivatives were applied by means of the ScreeningTool (npi electronic, Tamm, Germany) fast perfusion system as described previously.[50] To elicit IGABA, the chamber was perfused with 120 μL of GABA- or compound-containing solution at a volume rate of 300 μL/s.[34] Care was taken to account for possible slow recovery from increasing levels of desensitization in the presence of high drug concentrations. The duration of washout periods was therefore extended from 1.5 min (<10 μM compounds) to 30 min (≥10 μM compounds). Oocytes with maximal current amplitudes >3 μA were discarded to exclude voltage clamp errors.
(§7) Stimulation of chloride currents by modulators of the GABAA receptor was measured at a GABA concentration eliciting between 3% and 7% of the maximal current amplitude (EC3–7). The GABA EC3–7 was determined for each oocyte individually. Enhancement of the chloride current was defined as (IGABA+compd/IGABA) – 1, where IGABA+compd is the current response in the presence of a given compound and IGABA is the control GABA current. IGABA-max reflects the maximal IGABA enhancement. Concentration–response curves were generated and the data were fitted by nonlinear regression analysis using Origin Software (OriginLab Corp.). Data were fitted to the equation 1/(1 + (EC50/[compound])^nH), where nH is the Hill coefficient. […] Statistical significance was calculated by paired Student t-test with a confidence interval of <0.05.

[2] = target: T2, α1β3γ2S GABAA receptors (Homo sapiens, UniProt P14867+P28472); assay: Two-microelectrode voltage clamp, IGABA modulation, α1β3γ2S; details: for nH: Hill coefficient
T2 construct: expressed in transfected cells; host or cells: Xenopus laevis oocytes injected with cRNA (pCMV cDNA templates)
T2 sequence (P14867 28-456): as the sequence (P14867 28-456) above
T2 sequence (P28472 26-473): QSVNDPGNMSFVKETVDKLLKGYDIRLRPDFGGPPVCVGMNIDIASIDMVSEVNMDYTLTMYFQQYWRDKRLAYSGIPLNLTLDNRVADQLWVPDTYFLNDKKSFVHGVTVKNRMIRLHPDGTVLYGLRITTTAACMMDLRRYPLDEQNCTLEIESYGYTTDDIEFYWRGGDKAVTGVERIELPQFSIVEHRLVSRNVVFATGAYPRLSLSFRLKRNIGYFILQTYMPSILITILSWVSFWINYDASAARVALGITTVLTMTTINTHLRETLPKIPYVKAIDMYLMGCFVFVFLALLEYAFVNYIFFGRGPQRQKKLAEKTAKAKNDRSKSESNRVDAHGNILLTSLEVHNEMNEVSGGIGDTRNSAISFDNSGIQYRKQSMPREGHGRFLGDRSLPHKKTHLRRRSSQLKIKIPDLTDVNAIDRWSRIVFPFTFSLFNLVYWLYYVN
T2 sequence (P18507 40-467 isoform P18507-1 partner limits assumed): as the sequence (P18507 40-467 isoform P18507-1 partner limits assumed) above
Procedure: Preparation of stage V–VI oocytes from X. laevis and synthesis of capped runoff poly(A) cRNA transcripts from linearized cDNA templates (pCMV vector) was performed as previously described.[49] Female X. laevis frogs (Nasco) were anesthetized by 15 min incubation in a 0.2% MS-222 (methanesulfonate salt of 3-aminobenzoic acid ethyl ester; Sigma–Aldrich, Vienna, Austria) solution before removal of parts of the ovaries. Follicle membranes from isolated oocytes were enzymatically digested with 2 mg/mL collagenase (type 1A, Sigma–Aldrich, Vienna, Austria).
as §2
To ensure expression of the γ2S subunit in the case of α1/2/3/5β2/3γ2S receptors, cRNAs were mixed in a ratio of 1:1:10. For expression of receptors composed of α4β2γ2S and α1β1γ2S, cRNAS were mixed in a ratio of 3:1:10. The amount of cRNAs was determined by means of a NanoDrop ND-1000 (Kisker-Biotech, Steinfurt, Germany).
as §4
as §5, with “solution. Microelectrodes were filled with 2 M KCl and had resistances between 1 and 3 MΩ.” for “solution.”
as §6, with “Oocytes with maximal current amplitudes >3 μA were discarded to exclude voltage clamp errors.” left out
Stimulation of chloride currents by modulators of the GABAA receptor was measured at a GABA concentration eliciting between 3% and 7% of the maximal current amplitude (EC3–7). The GABA EC3–7 was determined for each oocyte individually. […] Statistical significance was calculated by paired Student t-test with a confidence interval of <0.05.

[3] = target: T3, α2β2γ2S GABAA receptors (Homo sapiens, UniProt P47869+P47870); assay: Two-microelectrode voltage clamp, IGABA modulation, α2β2γ2S; details: for nH: Hill coefficient
T3 construct: expressed in transfected cells; host or cells: Xenopus laevis oocytes injected with cRNA (pCMV cDNA templates)
T3 sequence (P47869 29-451): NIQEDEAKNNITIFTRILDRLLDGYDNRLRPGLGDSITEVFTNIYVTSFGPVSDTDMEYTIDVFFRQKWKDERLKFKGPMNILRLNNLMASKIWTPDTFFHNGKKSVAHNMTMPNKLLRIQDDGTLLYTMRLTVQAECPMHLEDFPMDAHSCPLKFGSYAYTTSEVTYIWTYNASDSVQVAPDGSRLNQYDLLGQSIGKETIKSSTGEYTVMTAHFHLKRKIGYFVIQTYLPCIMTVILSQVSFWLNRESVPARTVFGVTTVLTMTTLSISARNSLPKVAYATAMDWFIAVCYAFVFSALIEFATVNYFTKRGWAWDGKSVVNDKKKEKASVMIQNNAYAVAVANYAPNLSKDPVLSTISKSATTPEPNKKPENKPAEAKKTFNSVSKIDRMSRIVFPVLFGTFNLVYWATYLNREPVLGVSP
T3 sequence (P47870 26-512): as the sequence (P47870 26-512) above
T3 sequence (P18507 40-467 isoform P18507-1 partner limits assumed): as the sequence (P18507 40-467 isoform P18507-1 partner limits assumed) above
Procedure: as §1, §2, §3, §4, §5, §6
as §7, with “enhancement.” for “enhancement. Concentration–response curves were generated and the data were fitted by nonlinear regression analysis using Origin Software (OriginLab Corp.). Data were fitted to the equation 1/(1 + (EC50/[compound])^nH), where nH is the Hill coefficient.”

[4] = target: T4, α3β2γ2S GABAA receptors (Homo sapiens, UniProt P34903+P47870); assay: Two-microelectrode voltage clamp, IGABA modulation, α3β2γ2S; details: for nH: Hill coefficient
T4 construct: expressed in transfected cells; host or cells: Xenopus laevis oocytes injected with cRNA (pCMV cDNA templates)
T4 sequence (P34903 29-492): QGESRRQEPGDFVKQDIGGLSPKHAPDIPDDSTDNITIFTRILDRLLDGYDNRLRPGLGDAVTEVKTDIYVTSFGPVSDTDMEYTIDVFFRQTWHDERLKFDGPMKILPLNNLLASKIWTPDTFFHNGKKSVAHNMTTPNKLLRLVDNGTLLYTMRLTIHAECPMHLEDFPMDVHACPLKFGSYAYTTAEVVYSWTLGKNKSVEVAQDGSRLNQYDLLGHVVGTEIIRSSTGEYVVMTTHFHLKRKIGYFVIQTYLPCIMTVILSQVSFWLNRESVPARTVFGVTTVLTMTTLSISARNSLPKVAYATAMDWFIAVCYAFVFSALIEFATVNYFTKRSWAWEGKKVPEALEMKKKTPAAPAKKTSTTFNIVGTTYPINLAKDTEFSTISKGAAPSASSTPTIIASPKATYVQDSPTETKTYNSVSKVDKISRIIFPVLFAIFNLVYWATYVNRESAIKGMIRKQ
T4 sequence (P47870 26-512): as the sequence (P47870 26-512) above
T4 sequence (P18507 40-467 isoform P18507-1 partner limits assumed): as the sequence (P18507 40-467 isoform P18507-1 partner limits assumed) above
Procedure: as §1, §2, §3, §4, §5, §6
as §7, with “enhancement.” for “enhancement. Concentration–response curves were generated and the data were fitted by nonlinear regression analysis using Origin Software (OriginLab Corp.). Data were fitted to the equation 1/(1 + (EC50/[compound])^nH), where nH is the Hill coefficient.”

[5] = target: T5, TRPV1 (Homo sapiens, UniProt Q8NER1); assay: TRPV1 activation in Xenopus oocytes; details: 100 μM, data not shown
T5 construct: expressed in transfected cells; host or cells: Xenopus laevis oocytes
T5 sequence (Q8NER1 whole entry, species assumed): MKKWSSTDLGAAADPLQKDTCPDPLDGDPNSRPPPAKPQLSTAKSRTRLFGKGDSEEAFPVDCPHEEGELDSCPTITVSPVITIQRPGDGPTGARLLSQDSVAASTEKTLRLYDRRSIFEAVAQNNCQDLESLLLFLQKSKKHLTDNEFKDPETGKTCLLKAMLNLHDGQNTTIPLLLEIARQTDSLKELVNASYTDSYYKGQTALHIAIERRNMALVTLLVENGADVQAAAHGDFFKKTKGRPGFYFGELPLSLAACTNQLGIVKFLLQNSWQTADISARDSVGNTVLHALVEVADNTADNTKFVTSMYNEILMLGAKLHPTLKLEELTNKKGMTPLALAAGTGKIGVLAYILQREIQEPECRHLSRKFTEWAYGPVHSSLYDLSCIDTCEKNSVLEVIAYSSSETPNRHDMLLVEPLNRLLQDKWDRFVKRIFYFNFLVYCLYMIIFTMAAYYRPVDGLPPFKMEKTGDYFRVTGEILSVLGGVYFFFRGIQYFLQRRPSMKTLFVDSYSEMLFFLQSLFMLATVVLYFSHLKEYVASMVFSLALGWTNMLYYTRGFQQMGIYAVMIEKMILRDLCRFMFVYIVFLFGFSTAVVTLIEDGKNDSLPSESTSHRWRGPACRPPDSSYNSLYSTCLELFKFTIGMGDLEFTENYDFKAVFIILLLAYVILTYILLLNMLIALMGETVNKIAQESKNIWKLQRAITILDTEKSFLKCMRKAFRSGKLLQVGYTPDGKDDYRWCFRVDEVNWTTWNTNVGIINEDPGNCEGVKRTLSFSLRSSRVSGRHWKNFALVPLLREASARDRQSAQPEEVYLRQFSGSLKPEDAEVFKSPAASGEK
Text: (for review see ref ([47])). In order to rule out potential activation of TRPV1, selected compounds were studied in X. laevis oocytes for interaction with TRPV1 prior to in vivo characterization. […] Both compounds were further characterized concerning their anxiolytic activity (see also ref ([34])).

Compound	nH [1]	EC50 [1]	EC50 [2]	nH [2]	EC50 [3]	nH [3]	EC50 [4]	nH [4]	activation of TRPV1 [5]
CCCN(CCC)C(=O)/C=C/C=C/c1ccc2c(c1)OCO2 [Compound 23, (2E,4E)-5-(1,3-benzodioxol-5-yl)-N,N-dipropyl-2,4-pentadienamide]	3.1 ± 0.8	51.7 ± 9.5 µM	34.7 ± 5.7 µM	1.9 ± 0.2	26.4 ± 6.6 µM	1.9 ± 0.4	36.6 ± 7.2 µM	1.9 ± 0.3	did not activate TRPV1
CCCCN(CCCC)C(=O)/C=C/C=C/c1ccc2c(c1)OCO2 [Compound 25, (2E,4E)-5-(1,3-Benzodioxol-5-yl)-N,N-dibutyl-2,4-pentadienamide]	1.8 ± 0.1	13.8 ± 1.8 µM	29.5 ± 2.9 µM	1.5 ± 0.1	14.8 ± 1.9 µM	2.2 ± 0.3	16 ± 2.7 µM	1.8 ± 0.1	did not activate TRPV1
